Experimental data published in patent publication US11613531B2, “Inhibitors of RHO associated coiled-coil containing protein kinase” (Kadmon Corporation, LLC, priority 2017, dated 2023).

tested on: ppMlc (T18/S19) levels in A7R5 cells; test: A7R5 in-cell ELISA (pMLC); format: cell-based, Rat; details: A7R5 cells, 10 μM compound
Protocol: Determination of Compounds ROCK Inhibitory Activity in A7R5Cells.
Rat aortic smooth muscle cell line, A7R5, cells were seeded with density of 5,000 cells/well in a 96-well plates for 24 hours and subsequently treated for 90 min with testing compounds. Cells were then fixed and processed according to the In-Cell ELISA Colorimetric Detection Kit manual (Thermo Scientific).
An A7R5 in-cell Elisa assay was performed. A7R5 cells were treated with 9 points 2 fold serial dilution of compounds and ppMlc (T18/S19) levels were determined to calculate cellular IC50 values of the compounds. Compounds of the invention gave in cell IC50s under 100 nM.
In vitro activities for the compounds were measured with Z′-lyte kinase kit (ThermoFisher Scientific). The percent inhibition rate was calculated by normalizing the kinase activity value obtained with 1 μM compound treatment against DMSO control value and then applied to the formula, [1-(compound/DMSO)]×100%. IC50s were calculated using the nonlinear regression curve fit function of the GraphPad Prism software with kinase activities data measured with 9 points 2-fold serial dilution of compounds treatment. In cell pMLC IC50s were calculated with data obtained from A7R5 cell experiments. A7R5 cells were treated with 9 points 2-fold serial dilution of compounds and ppMlc (T18/S19) levels were determined to calculate cellular IC50 values of the compounds using the nonlinear regression curve fit function of the GraphPad Prism software. NIH3T3 cells stably expressing ACTA2-promoter-driven-luciferase were applied to measure ROCK compounds functional IC50s in cells. Cells were plated in 96 well plates to confluence and treated with 9 points serial dilution of compounds in combination with TGFβ1 for 24 hr. Luciferase activities were measured and compound's IC50s were calculated using the nonlinear regression curve fit function of the GraphPad Prism software.

c1cc(Nc2ccc(-c3cncs3)cc2)nc(N2CCNCC2)n1 [Example 363] was tested, and the “pMLC % inh A7R5 @ [conc]” value was 10.22%.

same assay, conditions: Rattus norvegicus, A7R5, A7R5 cells, 1 μM compound; read-out: pMLC % inh A7R5 @ [conc]

Point of comparison: c1cc(Nc2ccc3[nH]ncc3c2)nc(N2CC3(CCNCC3)C2)n1 [Example 76, N-(2-(2,7-diazaspiro[3.5]nonan-2-yl)pyrimidin-4-yl)-1H-indazol-5-amine], inhibition at 1 µM 0%. Against it:
- Cc1cc(Nc2ccc3[nH]ncc3c2)nc(N2CCCC3(CCNC3)C2)n1 (stereo not shown) [Example 125, N-(6-methyl-2-(2,7-diazaspiro[4.5]decan-7-yl)pyrimidin-4-yl)-1H-indazol-5-amine] — higher, 0.7%
- c1cc(Nc2ccc3[nH]ncc3c2)nc(N2CC3(CCNC3)C2)n1 [Example 75, N-(2-(2,6-diazaspiro[3.4]octan-2-yl)pyrimidin-4-yl)-1H-indazol-5-amine] — lower, -8.7%
- Fc1cnc(N2CCCC(C3CCCNC3)C2)nc1Nc1ccc2[nH]ncc2c1 (stereo not shown) [Example 171, N-(2-([3,3′-bipiperidin]-1-yl)-5-fluoropyrimidin-4-yl)-1H-indazol-5-amine] — lower, -9.6%
- Fc1cnc(N2CCCC3(CCNC3)C2)nc1Nc1ccc2[nH]ncc2c1 (stereo not shown) [Example 162, N-(5-fluoro-2-(2,7-diazaspiro[4.5]decan-7-yl)pyrimidin-4-yl)-1H-indazol-5-amine] — higher, 16.7%
- Fc1cnc(N2CCC3(CCCNC3)C2)nc1Nc1ccc2[nH]ncc2c1 (stereo not shown) [Example 161, N-(5-fluoro-2-(2,7-diazaspiro[4.5]decan-2-yl)pyrimidin-4-yl)-1H-indazol-5-amine] — higher, 2.6%
- Cc1cc(Nc2ccc3[nH]ncc3c2)nc(N2CCC3(CC2)CNC3)n1 [Example 121, N-(6-methyl-2-(2,7-diazaspiro[3.5]nonan-7-yl)pyrimidin-4-yl)-1H-indazol-5-amine] — lower, -7.3%
- OCC1CNCCN1c1ncc(F)c(Nc2ccc3[nH]ncc3c2)n1 (stereo not shown) [Example 156, (1-(4-((1H-indazol-5-yl)amino)-5-fluoropyrimidin-2-yl)piperazin-2-yl)methanol] — higher, 7.1%
- Fc1cnc(N2CCC(C3CNC3)C2)nc1Nc1ccc2[nH]ncc2c1 (stereo not shown) [Example 172, N-(2-(3-(azetidin-3-yl)pyrrolidin-1-yl)-5-fluoropyrimidin-4-yl)-1H-indazol-5-amine] — lower, -9.9%
- Fc1cnc(N2CCC3NCCC3C2)nc1Nc1ccc2[nH]ncc2c1 (stereo not shown) [Example 168, N-(5-fluoro-2-(octahydro-5H-pyrrolo[3,2-c]pyridin-5-yl)pyrimidin-4-yl)-1H-indazol-5-amine] — higher, 12.2%
- Cc1cc(Nc2ccc3[nH]ncc3c2)nc(N2CC3(CNC3)C2)n1 [Example 128, N-(6-methyl-2-(2,6-diazaspiro[3.3]heptan-2-yl)pyrimidin-4-yl)-1H-indazol-5-amine] — lower, -8.3%
- c1cc(Nc2ccc3[nH]ncc3c2)nc(N2CCC3(CNC3)C2)n1 [Example 71, N-(2-(2,6-diazaspiro[3.4]octan-6-yl)pyrimidin-4-yl)-1H-indazol-5-amine] — lower, -12.8%
- Fc1cnc(N2CCC3(CC2)CNC3)nc1Nc1ccc2[nH]ncc2c1 [Example 158, N-(5-fluoro-2-(2,7-diazaspiro[3.5]nonan-7-yl)pyrimidin-4-yl)-1H-indazol-5-amine] — lower, -1.1%

same assay, conditions: Rattus norvegicus, A7R5, A7R5 cells, 10 μM compound; read-out: pMLC % inh A7R5 @ [conc]

Point of comparison: COc1cnc(N2CC(C)NC(C)C2)nc1Nc1ccc2[nH]ncc2c1 (stereo not shown) [Example 52, N-(2-(3,5-dimethylpiperazin-1-yl)-5-methoxypyrimidin-4-yl)-1H-indazol-5-amine], inhibition at 10 µM 29.5%. Against it:
- Nc1nnc(-c2ccc(Nc3ccnc(N4CCNCC4)n3)cc2)o1 [Example 362, 5-(4-((2-(piperazin-1-yl)pyrimidin-4-yl)amino)phenyl)-1,3,4-oxadiazol-2-amine] — lower, 5.14%
- c1ccc(C2CN(c3nccc(Nc4ccc(-c5cn[nH]c5)cc4)n3)CCN2)cc1 (stereo not shown) [Example 260, N-(4-(1H-pyrazol-4-yl)phenyl)-2-(3-phenylpiperazin-1-yl)pyrimidin-4-amine] — lower, 18%
- Clc1cnc(N2CCNC(c3ccccc3)CC2)nc1Nc1ccc2[nH]ncc2c1 (stereo not shown) [Example 184, N-(5-chloro-2-(5-phenyl-1,4-diazepan-1-yl)pyrimidin-4-yl)-1H-indazol-5-amine] — higher, 34.1%
- COc1cnc(N2CCCNC(c3ccccc3)C2)nc1Nc1ccc2[nH]ncc2c1 (stereo not shown) [Example 48, N-(5-methoxy-2-(3-phenyl-1,4-diazepan-1-yl)pyrimidin-4-yl)-1H-indazol-5-amine] — higher, 51.1%
- Clc1cnc(N2CCCNC(c3ccccc3)C2)nc1Nc1ccc2[nH]ncc2c1 (stereo not shown) [Example 183, N-(5-chloro-2-(3-phenyl-1,4-diazepan-1-yl)pyrimidin-4-yl)-1H-indazol-5-amine] — higher, 43.1%
- CC1CN(c2nccc(Nc3ccc4[nH]ncc4c3)n2)CC(C)N1 (stereo not shown) [Example 226, N-(2-(3,5-dimethylpiperazin-1-yl)pyrimidin-4-yl)-1H-indazol-5-amine] — higher, 67.7%
- c1cncc(-c2ccc(Nc3ccnc(N4CCNCC4)n3)cc2)c1 [Example 40, 2-(piperazin-1-yl)-N-(4-(pyridin-3-yl)phenyl)pyrimidin-4-amine] — lower, 13.4%
- c1cc(Nc2ccc(-c3ccnc4[nH]cnc34)cc2)nc(N2CCNCC2)n1 [Example 366, N-(4-(3H-imidazo[4,5-b]pyridin-7-yl)phenyl)-2-(piperazin-1-yl)pyrimidin-4-amine] — lower, 4.95%
- c1cc(-c2cn[nH]c2)ccc1Nc1nc(N2CCCNCC2)nc2c1COC2 [Example 262, N-(4-(1H-pyrazol-4-yl)phenyl)-2-(1,4-diazepan-1-yl)-5,7-dihydrofuro[3,4-d]pyrimidin-4-amine] — higher, 87%
- CC1CN(c2nccc(Nc3ccc(-c4cn[nH]c4)cc3)n2)CCN1 (stereo not shown) [Example 252, N-(4-(1H-pyrazol-4-yl)phenyl)-2-(3-methylpiperazin-1-yl)pyrimidin-4-amine] — higher, 65%
- OCC1CNCCN1c1nccc(Nc2ccc3[nH]ncc3c2)n1 (stereo not shown) [Example 230, (1-(4-((1H-indazol-5-yl)amino)pyrimidin-2-yl)piperazin-2-yl)methanol] — lower, 16.1%
- CC1(C)CN(c2nccc(Nc3ccc4[nH]ncc4c3)n2)CCN1 [Example 227, N-(2-(3,3-dimethylpiperazin-1-yl)pyrimidin-4-yl)-1H-indazol-5-amine] — higher, 83.4%
- O=c1ccc(-c2ccc(Nc3ccnc(N4CCNCC4)n3)cc2)c[nH]1 [Example 349, 5-(4-((2-(piperazin-1-yl)pyrimidin-4-yl)amino)phenyl)pyridin-2(1H)-one] — lower, 4.21%
- CC(C)C1CCN(c2ncc(Cl)c(Nc3ccc4[nH]ncc4c3)n2)CCN1 (stereo not shown) [Example 182, N-(5-chloro-2-(5-isopropyl-1,4-diazepan-1-yl)pyrimidin-4-yl)-1H-indazol-5-amine] — higher, 30.2%
- CC(C)C1CN(c2ncc(Cl)c(Nc3ccc4[nH]ncc4c3)n2)CCCN1 (stereo not shown) [Example 181, N-(5-chloro-2-(3-isopropyl-1,4-diazepan-1-yl)pyrimidin-4-yl)-1H-indazol-5-amine] — higher, 36.5%
- Cc1nc(N2CCCNC(c3ccccc3)C2)nc(Nc2ccc3[nH]ncc3c2)c1C (stereo not shown) [Example 20, N-(5,6-dimethyl-2-(3-phenyl-1,4-diazepan-1-yl)pyrimidin-4-yl)-1H-indazol-5-amine] — higher, 37.6%

same assay, conditions: Rattus norvegicus, A7R5, A7R5 cells, ppMlc (T18/S19)

Point of comparison: c1cc(-c2cn[nH]c2)ccc1Nc1nc(N2CCCNCC2)nc2c1COC2 [Example 262, N-(4-(1H-pyrazol-4-yl)phenyl)-2-(1,4-diazepan-1-yl)-5,7-dihydrofuro[3,4-d]pyrimidin-4-amine], IC50 3650 nM. Against it:
- COc1cnc(N2CCCNC(c3ccccc3)C2)nc1Nc1ccc2[nH]ncc2c1 (stereo not shown) [Example 48, N-(5-methoxy-2-(3-phenyl-1,4-diazepan-1-yl)pyrimidin-4-yl)-1H-indazol-5-amine] — within 1.5-fold, 2580 nM
- CC1CN(c2nccc(Nc3ccc(-c4cn[nH]c4)cc3)n2)CCN1 (stereo not shown) [Example 252, N-(4-(1H-pyrazol-4-yl)phenyl)-2-(3-methylpiperazin-1-yl)pyrimidin-4-amine] — 3.1-fold lower, 1170 nM
